The results in this text go back to patent publication US8017606B2, “Quinoline derivatives as antibacterial agents” (Janssen Pharmaceutica NV, priority 2005, dated 2011).

Molecules are shown by their SMILES. ≈ marks a conversion by molar mass, not a printed value.

Data set [1] has as its system Enterococcus faecalis (ATCC29212). The data set is described as follows: Microtitre plate assay, IC90 determination. The note with it: 90% inhibitory concentration for bacterial growth, 37° C., resazurin fluorescence, read-out: IC90 (μg/ml) EFA 29212. The format is cell-based. On the procedure: (§1) The bacteria used in this study were grown overnight in flasks containing 100 ml Mueller-Hinton Broth (Becton Dickinson—cat. no. 275730) in sterile de-ionized water, with shaking, at 37° C. Stocks (0.5 ml/tube) were stored at −70° C. until use. Bacteria titrations were performed in microtiter plates and colony forming units (CFUs) were determined. In general, an inoculum level of approximately 100 CFUs was used for susceptibility testing.
(§2) Anti Bacterial Susceptibility Testing: IC90 Determination
(§3) Flat-bottom, sterile 96-well plastic microtiter plates were filled with 180 μl of sterile deionized water, supplemented with 0.25% BSA. Subsequently, stock solutions (7.8×final test concentration) of compounds were added in 45 μl volumes in column 2 Serial five-fold dilutions (45 μl in 180 μl) were made directly in the microtiter plates from column 2 to reach column 11. Untreated control samples with (column 1) and without (column 12) inoculum were included in each microtiter plate. Depending on the bacteria type, approximately 10 to 60 CFU per well of bacteria inoculum (100 TCID50), in a volume of 100 μl in 2.8× Mueller-Hinton broth medium, was added to the rows A to H, except column 12. The same volume of broth medium without inoculum was added to column 12 in row A to H. The cultures were incubated at 37° C. for 24 hours under a normal atmosphere (incubator with open air valve and continuous ventilation). At the end of incubation, one day after inoculation, the bacterial growth was quantitated fluorometrically. Therefore resazurin (0.6 mg/ml) was added in a volume of 20 μl to all wells […], and the plates were re-incubated overnight. A change in colour from blue to pink indicated the growth of bacteria.
(§4) The fluorescence was read in a computer-controlled fluorometer (Cytofluor Biosearch) at an excitation wavelength of 530 nm and an emission wavelength of 590 nm. The % growth inhibition achieved by the compounds was calculated according to standard methods. The IC90 (expressed in μg/ml) was defined as the 90% inhibitory concentration for bacterial growth.
(Resazurin is reduced to fluorescent resorufin, in cell work by metabolically active cells.)

Data set [2] concerns methicilline resistant Staphylococcus aureus (MRSA) (a clinical isolate from the University of Antwerp). Description: Microtitre plate assay, IC90 determination. The format is cell-based. To be noted: 90% inhibitory concentration for bacterial growth, 37° C., resazurin fluorescence, read-out: IC90 (μg/ml) STA RMETHIC. The method, then:
as §1, §2, §3, §4

Data set [3] has as its system Listeria monocytogenes (ATCC49594). Description: Microtitre plate assay, IC90 determination. The class given is cell-based. The note with it: 90% inhibitory concentration for bacterial growth, 37° C., resazurin fluorescence, read-out: IC90 (μg/ml) LMO 49594. The method, then:
as §1, §2, §3, §4

In data set [4] the test system is Staphylococcus aureus (ATCC43300). Description: Microtitre plate assay, IC90 determination. The class given is cell-based. The note with it: 90% inhibitory concentration for bacterial growth, 37° C., resazurin fluorescence, read-out: IC90 (μg/ml) STA 43300. The method, then:
as §1, §2, §3, §4

The subject of data set [5] is Pseudomonas aeruginosa (ATCC27853). The data set is described as follows: Microtitre plate assay, IC90 determination. The format is cell-based. To be noted: 90% inhibitory concentration for bacterial growth, 37° C., resazurin fluorescence, read-out: IC90 (μg/ml) PAE 27853. On the procedure: as §1, §2, §3, §4
The test system of data set [6] is Enterococcus faecalis (ATCC14506). The data set is described as follows: Microtitre plate assay, IC90 determination. The note with it: 90% inhibitory concentration for bacterial growth, 37° C., resazurin fluorescence, read-out: IC90 (μg/ml) EFA 14506. The format is cell-based. On the procedure:
as §1, §2, §3, §4

The test system of data set [7] is Streptococcus mutans (ATCC33402). Description: Microtitre plate assay, IC90 determination. The format is cell-based. To be noted: 90% inhibitory concentration for bacterial growth, 37° C., resazurin fluorescence, read-out: IC90 (μg/ml) SMU 33402. The method, then:
as §1, §2, §3, §4

The test system of data set [8] is Staphylococcus aureus (ATCC25923). The data set is described as follows: Microtitre plate assay, IC90 determination. The note with it: 90% inhibitory concentration for bacterial growth, 37° C., resazurin fluorescence, read-out: IC90 (μg/ml) STA 25923. The format is cell-based. The method, then:
as §1, §2, §3, §4

Data set [9] deals with Streptococcus pneumoniae (ATCC6305). Description: Microtitre plate assay, IC90 determination. The class given is cell-based. To be noted: 90% inhibitory concentration for bacterial growth, 37° C., resazurin fluorescence, read-out: IC90 (μg/ml) SPN 6305. The method, then: as §1, §2, §3, §4
Data set [10] relates to Bacillus subtilis (ATCC43639). The data set is described as follows: Microtitre plate assay, IC90 determination. The class given is cell-based. To be noted: 90% inhibitory concentration for bacterial growth, 37° C., resazurin fluorescence, read-out: IC90 (μg/ml) BSU 43639. The method, then: as §1, §2, §3, §4
In data set [11] the test system is Staphylococcus aureus (ATCC29213). Description: Microtitre plate assay, IC90 determination. The format is cell-based. The note with it: 90% inhibitory concentration for bacterial growth, 37° C., resazurin fluorescence, read-out: IC90 (μg/ml) STA 29213. The method, then: as §1, §2, §3, §4
Data set [12] has as its system Streptococcus pyogens (ATCC8668). Description: Microtitre plate assay, IC90 determination. The note with it: 90% inhibitory concentration for bacterial growth, 37° C., resazurin fluorescence, read-out: IC90 (μg/ml) SPY 8668. The class given is cell-based. The method, then:
as §1, §2, §3, §4

As for `COc1nc2cccc(C(O)(CCN(C)C)c3cccc4ccccc34)c2cc1-c1ccccc1` (stereo not drawn) [Compound 2], the IC90 stood at 11.6 µg/mL (≈ 25.1 µM) in data set [1]; 11.6 µg/mL (≈ 25.1 µM) in [2]; 11.6 µg/mL (≈ 25.1 µM) in [3]; 9.2 µg/mL (≈ 19.9 µM) in [4]; 9.2 µg/mL (≈ 19.9 µM) in data set [5]; 8.2 µg/mL (≈ 17.7 µM) in data set [6]. Moreover, the IC90 in [7] worked out at 9.2 µg/mL (≈ 19.9 µM); in data set [8] it was 11.6 µg/mL (≈ 25.1 µM); in data set [9] it was 11.6 µg/mL (≈ 25.1 µM); in data set [10], 9.2 µg/mL (≈ 19.9 µM); in data set [11] it was 9.2 µg/mL (≈ 19.9 µM); in data set [12], 9.2 µg/mL (≈ 19.9 µM).

Consider `COc1nc2cccc(C(O)(CCN(C)C)c3ccc4ccccc4c3)c2cc1-c1ccccc1` (stereo not drawn) [Compound 3], for which the IC90 was found to be 11.6 µg/mL (≈ 25.1 µM) in data set [1]; 11.6 µg/mL (≈ 25.1 µM) in [2]; 11.6 µg/mL (≈ 25.1 µM) in data set [3]; 9.2 µg/mL (≈ 19.9 µM) in data set [4]; 9.2 µg/mL (≈ 19.9 µM) in data set [5]; 9.2 µg/mL (≈ 19.9 µM) in data set [7]. For the same compound, the IC90 in [8] was determined as 11.6 µg/mL (≈ 25.1 µM); in [9], 5.2 µg/mL (≈ 11.2 µM); in data set [10] it was 11.6 µg/mL (≈ 25.1 µM); in data set [11], 11.6 µg/mL (≈ 25.1 µM); in data set [12], 9.2 µg/mL (≈ 19.9 µM).

In the case of `COc1nc2cccc(C(O)(CCN(C)C)c3cc4ccccc4o3)c2cc1-c1ccccc1` (stereo not drawn) [Compound 6], the IC90 in data set [1] turned out to be 11.4 µg/mL (≈ 25.2 µM); in data set [2] it was 10.1 µg/mL (≈ 22.3 µM); in [3], 11.4 µg/mL (≈ 25.2 µM); in data set [4], 9 µg/mL (≈ 19.9 µM); in [5], 9 µg/mL (≈ 19.9 µM); in data set [7] it was 9 µg/mL (≈ 19.9 µM). The IC90 in data set [8] was found to be 11.4 µg/mL (≈ 25.2 µM); in [9], 11.4 µg/mL (≈ 25.2 µM); in data set [10] it was 11.4 µg/mL (≈ 25.2 µM); in data set [11] it was 9 µg/mL (≈ 19.9 µM); in [12], 9 µg/mL (≈ 19.9 µM).

By melting point is commonly meant the temperature, or range, at which the solid turns liquid. Take `COc1nc2c(C(O)(CCN(C)C)c3ccccc3)cc(Br)cc2cc1Cc1ccccc1` (stereo not drawn) [Compound 8]: the melting point is 66 °C. Also, the IC90 in data set [2] was determined as 11.3 µg/mL (≈ 22.4 µM). In [3], the IC90 was 40.2 µg/mL (≈ 79.5 µM). Besides, in data set [5], the IC90 turned out to be 12.7 µg/mL (≈ 25.1 µM). The IC90 in data set [6] stood at 11.3 µg/mL (≈ 22.4 µM). In addition, the IC90 in data set [7] was 10.1 µg/mL (≈ 20 µM). Further, the IC90 in data set [8] stood at 11.3 µg/mL (≈ 22.4 µM). Besides, in [9], the IC90 came out at 11.3 µg/mL (≈ 22.4 µM). The IC90 in data set [10] was 12.7 µg/mL (≈ 25.1 µM). For the same compound, in data set [11], the IC90 stood at 10.1 µg/mL (≈ 20 µM). The IC90 in data set [12] worked out at 10.1 µg/mL (≈ 20 µM).

As for `COc1nc2c(C(O)(CCN(C)C)c3cc(F)cc(F)c3)cc(Br)cc2cc1-c1ccccc1` (stereo not drawn) [Compound 9], the IC90 in [1] was 10.5 µg/mL (≈ 19.9 µM); in data set [2], 11.8 µg/mL (≈ 22.4 µM); in [3] it was 10.5 µg/mL (≈ 19.9 µM); in [4], 13.3 µg/mL (≈ 25.2 µM); in data set [5], 10.5 µg/mL (≈ 19.9 µM); in data set [6] it was 11.8 µg/mL (≈ 22.4 µM). For the same compound, the IC90 in data set [7] came to 10.5 µg/mL (≈ 19.9 µM); in [8], 11.8 µg/mL (≈ 22.4 µM); in data set [9] it was 13.3 µg/mL (≈ 25.2 µM); in data set [11], 10.5 µg/mL (≈ 19.9 µM); in data set [12] it was 10.5 µg/mL (≈ 19.9 µM).

Take `COc1nc2c(C(O)(CCN(C)C)c3cccs3)cc(Br)cc2cc1Cc1ccccc1` (stereo not drawn) [Compound 10]: the IC90 in [1] worked out at 10.2 µg/mL (≈ 19.9 µM); in [2], 10.2 µg/mL (≈ 19.9 µM); in data set [3] it was 10.2 µg/mL (≈ 19.9 µM); in data set [4], 12.9 µg/mL (≈ 25.2 µM); in data set [5] it was 12.9 µg/mL (≈ 25.2 µM); in [7], 10.2 µg/mL (≈ 19.9 µM). The IC90 in [8] was 11.5 µg/mL (≈ 22.5 µM); in data set [9], 11.5 µg/mL (≈ 22.5 µM); in data set [11] it was 12.9 µg/mL (≈ 25.2 µM); in data set [12], 10.2 µg/mL (≈ 19.9 µM).
